Measured values from publication PMC10119930, “Dual Molecules Targeting 5-HT6 and GABA-A Receptors as a New Approach to Combat Depression Associated with Neuroinflammation” (ACS Chemical Neuroscience, 2023).

Assays:
5-HT6 receptor = 5-HT6 receptor (Homo sapiens, UniProt P50406); assay: Radioligand binding assay for 5-HT6 receptor ([3H]-LSD displacement); parameters: expressed in transfected cells; host or cells: HEK-293 (cryopreserved membranes); details: competitive replacement of [3H]-LSD; ±S.E.M.; read-out: 5-HT6R Ki
Sequence of 5-HT6 receptor (P50406 whole entry): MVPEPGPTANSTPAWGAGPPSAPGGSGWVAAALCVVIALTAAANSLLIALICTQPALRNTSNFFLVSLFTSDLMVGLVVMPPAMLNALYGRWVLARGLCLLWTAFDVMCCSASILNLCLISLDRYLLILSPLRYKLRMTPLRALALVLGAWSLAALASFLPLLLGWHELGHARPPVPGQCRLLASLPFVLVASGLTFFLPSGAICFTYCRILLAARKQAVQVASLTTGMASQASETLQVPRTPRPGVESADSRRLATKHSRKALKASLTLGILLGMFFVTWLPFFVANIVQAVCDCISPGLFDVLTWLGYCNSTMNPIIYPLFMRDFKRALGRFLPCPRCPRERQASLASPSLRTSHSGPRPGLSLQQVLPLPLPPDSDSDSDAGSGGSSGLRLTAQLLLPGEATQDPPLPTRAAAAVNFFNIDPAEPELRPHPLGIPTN
Experimental: To determine the affinity for 5-HT6, the cryopreserved membranes from HEK-293 cells stably transfected with the human recombinant 5-HT6 receptor were used.[40] Preparation of the tested compounds included preparation of stock solutions in DMSO (1 mM) and subsequent serial dilutions (10^–10–10^–5 M) of tested compounds in the appropriate buffer (50 mM Tris buffer, pH 7.4, 10 mM MgCl2, 0.5 mM ethylenediaminetetraacetic acid). The serial dilutions were acquired directly on a 96-well microplate. The reaction mix included 50 μL of appropriate concentration of tested molecule, 50 μL of [^3H]LSD 2.5/2.0 nM, and 150 μL of diluted membranes. The microplate containing the reaction mix was protected with a sealing tape and incubated for 60 min at 37 °C. Quenching of the reaction mixtire included: rapid filtration through UniFilter 96 GF/B filter microplate and rapid washes using 200 μL 50 mM assay buffer and vacuum manifold and 96-well pipettor. The collected microplates were dried overnight at 37 °C. The UniFilter bottoms were sealed, and then 30 μL of Betaplate Scint liquid scintillator (PerkinElmer) was added to each well. […] The obtained data were fit to a one-site curve-fitting equation using Prism 5 software (GraphPad Software), and the Ki values were determined using the Cheng–Prusoff equation. Radioligand binding was performed in duplicates.

female Wistar rats [1] = assay: Forced swim test in rats; format: in vivo, rat; details: acute, ip 30 min before test
Experimental: Naïve female Wistar rats (weighing 180–200 g) were used in the study. The animals were housed in groups of three to four in standard Makrolon cages (37 cm × 21 cm × 15 cm) under strictly controlled laboratory conditions (ambient temperature 21–24 °C, relative humidity 45–65%) with a 12/12 h light–dark regime (light on at 6:00 a.m. and off at 6:00 p.m.). Animals had unrestricted access to tap water and food (typical pellets). Prior the experiment the animals were randomly appointed to the group. The behavioral studies were accomplished between 8:00 a.m. and 5:00 p.m. with the researcher blind to the study. The experiments were performed according to protocols approved by the Local Ethical Committee in Krakow (Approval Number 147/2018), Poland. Housing and experimental procedures were conducted under the European Union Directive of September 22, 2010 (2010/63/EU) and Polish legislation regarding animal studies. All efforts were made to minimize animal suffering and the number of animals used in the study.
Vortioxetine (Sigma, Germany) and the tested compounds (16 and 6) were dissolved in 10% cyclodextrin and administered ip 30 min before the test or during 14 consecutive days, with the last injection 60 min before the test. 10% cyclodextrin was administrated to control group.
A modified forced swim test was carried out according to Detke et al.[50],[51] First, the animals were individually placed inside Plexiglas cylinders, which were 40 cm high and 18 cm in diameter, filled with water at a temperature of 23–25 °C for 15 min. Afterward, the rats were transferred to a Plexiglas box and kept under a 60 W bulb for 30 min to dry. The day after, exactly 24 h later, the rats were once again placed in the cylinder, and their duration of immobility, swimming, and climbing was observed and recorded during a 5 min. The swimming behavior involved energetic movements such as horizontal swimming around the cylinder, while climbing activity referred to upward movements of the forepaws along the swim chamber’s side. Immobility was recorded when the rat only made necessary movements to keep its head above the water. For each test, a fresh water was provided. Open field test in rats: The test was conducted as previously reported by our research group.[52] The test was performed in a darkened room employing the Motor Monitor System (Campden Instruments, Ltd., U.K.). The system was equipped with two SmartFrame Open Field stations, each measuring 40 cm × 40 cm × 38 cm and consisting of 16 × 16 beams. These stations were placed inside sound-attenuating chambers and connected to a PC software using […]. The animals, belonging to either the vehicle-injected or drug-injected group, were individually positioned at the center of the station. The Motor Monitor System, which was automated, recorded the animal’s ambulation in both the X and Y axes, as well as the number of rearing and peeping episodes. Additionally, the total distance traveled by each animal during the 5 min test period was also recorded. Statistical analysis: Results are presented as the mean ± SEM values. They were estimated using one-way analysis of variance (ANOVA), followed by Newman–Keuls post hoc or unpaired two-tailed Student t test. Statistical significance was considered when p < 0.05 for differences between groups.

BV-2 microglia cells [2] = assay: Evaluation of microglia morphology by fluorescence microscopy (MitoTracker) after LPS; format: cell-based, mouse; details: 10 μM pretreatment 1 h, LPS 18 h
BV-2 microglia cells [3] = assay: Anti-inflammatory assessment in LPS-stimulated BV-2 cells (NO, ROS, IL-6, TNF-α); format: cell-based, mouse; details: 10 μM pretreatment 1 h, then LPS 18 h
Experimental: Mouse microglial (BV-2) cell line was a generous gift from Prof. Bożena Kamińska-Kaczmarek of the Nencki Institute of Experimental Biology, Polish Academy of Sciences, Warsaw, Poland. The cell culture medium: Dulbecco’s modified with high glucose (DMEM, Glutamx ThermoFisher) and supplemented with 10% inactivated fetal bovine serum heat (ThermoFisher), 100 IU/mL penicillin (Merck) and 100 μg/mL streptomycin (Merck). Cell culture conditions: culture flasks (area 175 cm^2, Nunc), temperature of 37 °C, 5% CO2. For the assessment of the effect of tested compounds on the quantities of reactive oxygen species, nitric oxide, and inflammatory markers, the BV-2 cells were positioned in a 96-well culture plate (5 × 10^4 cells per well, Falcon). In the case of cell membrane damage assay, a 96-well culture plate (2 × 10^4 cells per well, Falcon) was used. The cells were cultured in the incubator (37 °C, 5% CO2) for 24 h prior to the assay. The tested compounds were dissolved in DMSO to achieve the concentration of 10^–2 M. Serial dilutions of the compounds were prepared in PBS and added directly to the medium containing adherent cells. The resulting mixtures were examined for any evidence of precipitation or opalescence before the assay. BV-2 cells were incubated with selected molecules (6, 16 at a concentration of 10 μM) during 1 h. Subsequently, lipopolysaccharide (100 ng/mL) was added and the resulting mixture was incubated for 18 h. Next, the culture supernatant was collected to measure the levels of nitric oxide (NO), reactive oxygen species (ROS), IL-6, and TNF-α according to the procedures described in detail below. All experiments were performed in duplicates, in three independent experiments.
The quantities of NO produced by the cells were determined using DAN reagent (2,3-diaminonaphthalene), rendering the method protocol described by Nussler et al.[48] After incubating at room temperature for 15 min, the fluorescence intensity (EX 360; EM 440 nm) was measured using a microplate reader POLARstar Omega from BMG Labtech. The amounts of NO were then calculated as a percentage of the control (which represents the maximal response of LPS). ROS measurement. The fluorescent dye 2,7-dichlorodihydrofluorescein diacetate (DCFH-DA)[49] was utilized to determine the quantity of ROS released by BV-2 cells. After a 30 min incubation period at 37 °C with 10 μM DCFH-DA, the fluorescence intensity (EX 490; EM 520 nm) was examined using a microplate reader POLARstar Omega from BMG Labtech. The amounts of ROS were then expressed as a percentage of the control (which represents the maximal response of LPS). The IL-6 and TNF-α levels detected in the culture supernatants were quantified using LANCE Ultra TR-FRET detection kit (PerkinElmer), rendering the manufacturer’s procedure. The detection of IL-6 and TNF-α was performed independently in a 384-well plate according to the instructions provided. To each well of the plate, 15 μL of sample was added followed by the addition of 5 μL of premixed antibody solution. After incubating IL-6 for 1 h and TNF-α for 3 h in the absence of light, at 22 °C, the plates were transferred to an EnVision plate reader (PerkinElmer). Measurements were conducted at 320 nm wavelength for excitation, at 615 nm for donor emission, and at 660 nm for acceptor emission. The final data were determined as the ratio of the 660 nm signal to the 615 nm signal. The results represent the levels of each cytokine determined as a percentage of control (considered as maximal cell response to LPS). The GraphPad program was used to conduct statistical analysis, with all outcomes presented as mean values with standard deviation (SD). Differences between groups were assessed using one-way ANOVA, followed by post hoc analysis (Dunnett’s multiple comparison tests). Results were considered statistically significant if the p-value was less than 0.05. […]

[4] = system: human α1β2γ2-GABA-A receptors; assay: Electrophysiological studies, automated patch clamp (QPatch16X), HEK293 cells; format: cell-based; details: agonist mode, compound at 10 μM; current amplitude normalized to 10 μM GABA response; ±S.E.M.
Experimental: Electrophysiological studies were acquired using the QPatch16X automatic patch clamp platform (Sophion Biosciences) as described before.[42],[43] […] Before the assay, cells were detached from the culture flask by treating them with TrypLE Express solution (Life Technologies) and subsequently suspended in serum-free media. The cells were loaded into a 1.5 mL microtube on the automated electrophysiology instrument, which subsequently performed a spin-down using its built-in centrifuge. Following this, the cells were washed with Ringer’s extracellular solution. The cells were moved to the pipetting wells of a 16-channel planar patch chip plate (QPlate 16X) designed for single-use. A combined suction/voltage protocol was then applied to establish gigaseals. […] During the entire whole-cell recording, the holding potential was maintained at −90 mV. […] The intracellular solution contained 140 mM CsF, 1 mM EGTA, 5 mM CsOH, 10 mM HEPES, 20 mMNaCl (pH 7.2, 320 mOsm). […] The acquired data were examined with QPatch assay software (v5.0, Sophion Biosciences)[44] and are represented as the mean of three separated measurements performed on distinct cells. The efficacy of the tested molecules was determined by calculating the baseline-corrected ratio of the maximum current amplitudes elicited by the tested compounds and the reference agonist (T1-ATG/AG1-ATG or T2-ATG/AG1-ATG). The raw current recordings were standardized and presented as a percentage of the current amplitude evoked by the reference agonist, using the QPatch assay software (v5.0, Sophion Biosciences).

female Wistar rats [5] = system: female Wistar rats; parameters: method as in PMID 36603509; details: not tested here; cited from earlier work
[6] = Parallel artificial membrane permeability assay (PAMPA); format: in vitro ADME; details: tested at 10^–5 M, PAMPA Plate System Gentest
Experimental: To estimate the passive transport through cell membranes, we used specialized PAMPA Plate System Gentest acquired from Corning (Tewksbury, MA, USA). The assay was performed as described in the manufacturer’s protocol. The quantitative measurements of tested molecules in apical and basolateral wells were conducted using LC/MS (Waters ACQUITY TQD system with the TQ detector, Milford, USA) and a specific internal standard. The Pe permeability coefficient was calculated rendering the formulas described previously[47],[47] and compared to the reference compound sulpiride.

Structure (SMILES): Cc1c(OCc2ccccc2)cccc1N1CCN(CCO)CC1 [Compound 6, 2-(4-(3-(Benzyloxy)-2-methylphenyl)piperazin-1-yl)ethan-1-ol]
- Ki (5-HT6 receptor): 8 ± 0.8 nM
- immobility, climbing and swimming behaviors (female Wistar rats [1]): did not influence any of the above behaviors
- mitochondrial membrane potential / morphology of microglia exposed to LPS (BV-2 microglia cells [2]): mitochondrial membrane potential was changed
- LPS-induced IL-6 production (BV-2 microglia cells [3]): did not change
- LPS-induced NO production (BV-2 microglia cells [3]): did not change
- LPS-induced ROS production (BV-2 microglia cells [3]): did not change
- LPS-induced TNF-α production (BV-2 microglia cells [3]): did not change

Structure (SMILES): NCCCC(=O)O [GABA]
- [%] of 10 μM GABA activity [4]: 100%
- antidepressant effects (female Wistar rats [5]): does not produce antidepressant effects

Structure (SMILES): CCN1CCCC1CNC(=O)c1cc(S(N)(=O)=O)ccc1OC (stereo not shown) [sulpiride, reference compound]
- Papp [6]: 0.016 ×10⁻⁶ cm/s
